ChEMBL document CHEMBL3885861, “Open TG-GATES”

Species: Rattus norvegicus
Experiment: Open TG-GATES - Regimen: Single
Assay type: toxicity, organism-based, Sprague-Dawley
Set-up: regimen Single, gender Male, age 6 weeks
Details: in vivo, po, route gavage; for APTT / Bas / Eos / Fbg / Hb / Ht / Lym / MCH / MCHC / MCV / Mono / Neu / PT / Plat / RBC / Ret / WBC: tissue Blood; for KIDNEY_L / KIDNEY_R / KIDNEY_TOTAL: tissue Kidney; for LIVER: tissue Liver; for A/G / ALP / ALT / AST / BUN / CRE / Ca / Cl / DBIL / GLC / IP / K / LDH / Na / PL / RALB / TBIL / TC / TG / TP / gamma-GTP: tissue Plasma
[1] = 300 mg/kg, 3 h, dose level Middle
[2] = 300 mg/kg, 6 h, dose level Middle
[3] = 300 mg/kg, 9 h, dose level Middle
[4] = 300 mg/kg, 24 h, dose level Middle
[5] = 1000 mg/kg, 3 h, dose level High
[6] = 1000 mg/kg, 6 h, dose level High
[7] = 1000 mg/kg, 9 h, dose level High
[8] = 1000 mg/kg, 24 h, dose level High

## CC(S)C(=O)NCC(=O)O (centres undefined) [TIOPRONIN]
[1]
  TERMINAL_BW: 211.9 g
  APTT: 22.7 s
  Bas: 0%
  Eos: 0.4%
  Fbg: 295.4 mg/dL
  Hb: 12.8 g/dL
  Ht: 39.7%
  Lym: 77.8%
  MCH: 20.3 pg
  MCHC: 32.2%
  MCV: 63 fL
  Mono: 2.6%
  Neu: 18.4%
  PT: 16.8 s
  Plat: 116 x10_4/uL
  RBC: 631.6 x10_4/ul
  Ret: 7.7%
  WBC: 76.7 x10_2/uL
  KIDNEY_L: 0.9 g
  KIDNEY_R: 1 g
  KIDNEY_TOTAL: 1.9 g
  LIVER: 9.7 g
  A/G: 1.2
  ALP: 1446.8 IU/L
  ALT: 65.2 IU/L
  AST: 83.6 IU/L
  BUN: 10.8 mg/dL
  CRE: 0.1 mg/dL
  Ca: 10.7 mg/dL
  Cl: 106.2 meq/L
  DBIL: 0.002 mg/dL
  GLC: 194.8 mg/dL
  IP: 7.9 mg/dL
  K: 3.9 meq/L
  LDH: 169.4 IU/L
  Na: 142.2 meq/L
  PL: 125.2 mg/dL
  RALB: 3 g/dL
  TBIL: 0.02 mg/dL
  TC: 73.6 mg/dL
  TG: 47 mg/dL
  TP: 5.4 g/dL
  gamma-GTP: 2 IU/L
[2]
  TERMINAL_BW: 212 g
  APTT: 21.2 s
  Bas: 0%
  Eos: 0.8%
  Fbg: 290.4 mg/dL
  Hb: 12.6 g/dL
  Ht: 38.8%
  Lym: 80.4%
  MCH: 20.2 pg
  MCHC: 32.5%
  MCV: 62.2 fL
  Mono: 2.6%
  Neu: 15.4%
  PT: 16.9 s
  Plat: 121.4 x10_4/uL
  RBC: 625 x10_4/ul
  Ret: 8%
  WBC: 77.2 x10_2/uL
  KIDNEY_L: 0.9 g
  KIDNEY_R: 1 g
  KIDNEY_TOTAL: 1.9 g
  LIVER: 9.2 g
  A/G: 1.2
  ALP: 1527 IU/L
  ALT: 58 IU/L
  AST: 73 IU/L
  BUN: 8.4 mg/dL
  CRE: 0.1 mg/dL
  Ca: 10.8 mg/dL
  Cl: 107.4 meq/L
  DBIL: 0 mg/dL
  GLC: 191.6 mg/dL
  IP: 9.6 mg/dL
  K: 4.4 meq/L
  LDH: 154.2 IU/L
  Na: 142.2 meq/L
  PL: 117.2 mg/dL
  RALB: 2.9 g/dL
  TBIL: 0.022 mg/dL
  TC: 67.2 mg/dL
  TG: 59.4 mg/dL
  TP: 5.3 g/dL
  gamma-GTP: 1.8 IU/L
[3]
  TERMINAL_BW: 208.1 g
  APTT: 23.7 s
  Bas: 0%
  Eos: 0.4%
  Fbg: 293.4 mg/dL
  Hb: 12.9 g/dL
  Ht: 40.3%
  Lym: 77.8%
  MCH: 20.7 pg
  MCHC: 32.1%
  MCV: 64.6 fL
  Mono: 2.4%
  Neu: 18.6%
  PT: 16.3 s
  Plat: 118 x10_4/uL
  RBC: 624 x10_4/ul
  Ret: 7.7%
  WBC: 77 x10_2/uL
  KIDNEY_L: 0.9 g
  KIDNEY_R: 1 g
  KIDNEY_TOTAL: 1.9 g
  LIVER: 8.1 g
  A/G: 1.2
  ALP: 1363.8 IU/L
  ALT: 52.8 IU/L
  AST: 75 IU/L
  BUN: 10.6 mg/dL
  CRE: 0.1 mg/dL
  Ca: 10.6 mg/dL
  Cl: 107.4 meq/L
  DBIL: 0.008 mg/dL
  GLC: 191.4 mg/dL
  IP: 9.8 mg/dL
  K: 4.2 meq/L
  LDH: 194.2 IU/L
  Na: 143.2 meq/L
  PL: 110.6 mg/dL
  RALB: 2.8 g/dL
  TBIL: 0.02 mg/dL
  TC: 63.4 mg/dL
  TG: 42.2 mg/dL
  TP: 5.3 g/dL
  gamma-GTP: 1.2 IU/L
[4]
  TERMINAL_BW: 227.3 g
  APTT: 21.1 s
  Bas: 0%
  Eos: 0.8%
  Fbg: 312.6 mg/dL
  Hb: 12.7 g/dL
  Ht: 38.9%
  Lym: 80%
  MCH: 20.4 pg
  MCHC: 32.7%
  MCV: 62.2 fL
  Mono: 3%
  Neu: 15%
  PT: 16.1 s
  Plat: 113.7 x10_4/uL
  RBC: 624.6 x10_4/ul
  Ret: 7.4%
  WBC: 100.8 x10_2/uL
  KIDNEY_L: 1 g
  KIDNEY_R: 1 g
  KIDNEY_TOTAL: 1.9 g
  LIVER: 10.4 g
  A/G: 1.2
  ALP: 1662.2 IU/L
  ALT: 41.8 IU/L
  AST: 72.4 IU/L
  BUN: 14.6 mg/dL
  CRE: 0.2 mg/dL
  Ca: 10.8 mg/dL
  Cl: 106.4 meq/L
  DBIL: 0 mg/dL
  GLC: 193.6 mg/dL
  IP: 7.6 mg/dL
  K: 4.4 meq/L
  LDH: 161.6 IU/L
  Na: 142.6 meq/L
  PL: 143.2 mg/dL
  RALB: 3 g/dL
  TBIL: 0.018 mg/dL
  TC: 81.6 mg/dL
  TG: 102.4 mg/dL
  TP: 5.6 g/dL
  gamma-GTP: 1.2 IU/L
[5]
  TERMINAL_BW: 213.5 g
  APTT: 23 s
  Bas: 0%
  Eos: 0.4%
  Fbg: 307.8 mg/dL
  Hb: 13 g/dL
  Ht: 40.2%
  Lym: 75.8%
  MCH: 20.5 pg
  MCHC: 32.3%
  MCV: 63.5 fL
  Mono: 4%
  Neu: 18%
  PT: 17.1 s
  Plat: 120.4 x10_4/uL
  RBC: 633.8 x10_4/ul
  Ret: 8%
  WBC: 75.4 x10_2/uL
  KIDNEY_L: 0.9 g
  KIDNEY_R: 0.9 g
  KIDNEY_TOTAL: 1.8 g
  LIVER: 9.2 g
  A/G: 1.1
  ALP: 1422.8 IU/L
  ALT: 95.4 IU/L
  AST: 90 IU/L
  BUN: 11.2 mg/dL
  CRE: 0.1 mg/dL
  Ca: 10.4 mg/dL
  Cl: 106.8 meq/L
  DBIL: 0 mg/dL
  GLC: 199.4 mg/dL
  IP: 9.1 mg/dL
  K: 4 meq/L
  LDH: 232.2 IU/L
  Na: 141.4 meq/L
  PL: 115.4 mg/dL
  RALB: 2.8 g/dL
  TBIL: 0.008 mg/dL
  TC: 69 mg/dL
  TG: 52.8 mg/dL
  TP: 5.3 g/dL
  gamma-GTP: 1.8 IU/L
[6]
  TERMINAL_BW: 211.1 g
  APTT: 23.4 s
  Bas: 0%
  Eos: 0.4%
  Fbg: 291.4 mg/dL
  Hb: 12.9 g/dL
  Ht: 39.5%
  Lym: 76.2%
  MCH: 20.3 pg
  MCHC: 32.6%
  MCV: 62.4 fL
  Mono: 3.2%
  Neu: 18.6%
  PT: 17.6 s
  Plat: 120 x10_4/uL
  RBC: 632.6 x10_4/ul
  Ret: 8.1%
  WBC: 99 x10_2/uL
  KIDNEY_L: 0.9 g
  KIDNEY_R: 0.9 g
  KIDNEY_TOTAL: 1.9 g
  LIVER: 8.2 g
  A/G: 1.2
  ALP: 1452 IU/L
  ALT: 77.2 IU/L
  AST: 78 IU/L
  BUN: 9 mg/dL
  CRE: 0.1 mg/dL
  Ca: 10.3 mg/dL
  Cl: 107 meq/L
  DBIL: 0.002 mg/dL
  GLC: 196 mg/dL
  IP: 9.3 mg/dL
  K: 4.1 meq/L
  LDH: 147.4 IU/L
  Na: 140.4 meq/L
  PL: 100.4 mg/dL
  RALB: 2.8 g/dL
  TBIL: 0.016 mg/dL
  TC: 59.8 mg/dL
  TG: 31.6 mg/dL
  TP: 5.2 g/dL
  gamma-GTP: 1.8 IU/L
[7]
  TERMINAL_BW: 211.2 g
  APTT: 23.6 s
  Bas: 0%
  Eos: 0.2%
  Fbg: 271.2 mg/dL
  Hb: 12.6 g/dL
  Ht: 39.2%
  Lym: 74.6%
  MCH: 20.3 pg
  MCHC: 32%
  MCV: 63.2 fL
  Mono: 1.4%
  Neu: 23.4%
  PT: 17.6 s
  Plat: 123.5 x10_4/uL
  RBC: 621.6 x10_4/ul
  Ret: 7.4%
  WBC: 71.9 x10_2/uL
  KIDNEY_L: 1 g
  KIDNEY_R: 1 g
  KIDNEY_TOTAL: 1.9 g
  LIVER: 7.8 g
  A/G: 1.2
  ALP: 1385.8 IU/L
  ALT: 69.4 IU/L
  AST: 80.6 IU/L
  BUN: 9.4 mg/dL
  CRE: 0.1 mg/dL
  Ca: 10.5 mg/dL
  Cl: 106.8 meq/L
  DBIL: 0.006 mg/dL
  GLC: 188.2 mg/dL
  IP: 9.1 mg/dL
  K: 4.3 meq/L
  LDH: 160.4 IU/L
  Na: 140.8 meq/L
  PL: 98.6 mg/dL
  RALB: 2.8 g/dL
  TBIL: 0.018 mg/dL
  TC: 55.6 mg/dL
  TG: 40.4 mg/dL
  TP: 5.2 g/dL
  gamma-GTP: 1.2 IU/L
[8]
  TERMINAL_BW: 228 g
  APTT: 22.3 s
  Bas: 0%
  Eos: 1%
  Fbg: 307.2 mg/dL
  Hb: 12.8 g/dL
  Ht: 39.1%
  Lym: 76.8%
  MCH: 20.2 pg
  MCHC: 32.6%
  MCV: 62.1 fL
  Mono: 3.2%
  Neu: 18%
  PT: 16.2 s
  Plat: 115.2 x10_4/uL
  RBC: 630.2 x10_4/ul
  Ret: 7.7%
  WBC: 117.2 x10_2/uL
  KIDNEY_L: 1 g
  KIDNEY_R: 1 g
  KIDNEY_TOTAL: 2 g
  LIVER: 10.2 g
  A/G: 1.2
  ALP: 1503 IU/L
  ALT: 47 IU/L
  AST: 76.6 IU/L
  BUN: 16.2 mg/dL
  CRE: 0.2 mg/dL
  Ca: 10.8 mg/dL
  Cl: 107.4 meq/L
  DBIL: 0 mg/dL
  GLC: 181.6 mg/dL
  IP: 7.4 mg/dL
  K: 4.6 meq/L
  LDH: 176.2 IU/L
  Na: 142.6 meq/L
  PL: 138.8 mg/dL
  RALB: 2.9 g/dL
  TBIL: 0.008 mg/dL
  TC: 76.8 mg/dL
  TG: 117 mg/dL
  TP: 5.4 g/dL
  gamma-GTP: 1.4 IU/L
